# Test results as given in patent US3937801A, “Reducing the incidence of gastrointestinal side effects during the treatment of inflammatory conditions with antiinflammatory drugs” (priority 1973, dated 1976).
# Values joined by “and” are separate entries in the source; they are usually repeats but may differ in a detail not shown here. Equal entries are not always repeated. Where two headings read alike, the source gives them in different places.
# What was measured:
# [1] = test system: indomethacin-induced ulcers; assay: indomethacin-induced ulcer formation in rats (procedure of Lee et al.); format: in vivo, rat; conditions: for ED50: po; for Relative Potency ± S.E.M.: relative to 2-(3-hydroxy-3-methyloctyl)-5-oxocyclopentaneheptanoic acid, procedure of Example 1
# Source text: The gastrointestinal side effect inhibiting property of the compositions of the present invention are demonstrable in standard pharmacological tests. For example, in procedures similar to the in vivo test described by Y. H. Lee et al., cited above, for evaluating the effects of a test compound on indomethacin-induced ulcers in the rat, the compounds of formula 1 are shown to be effective, see Examples 1 and 2.
# By following the procedure of Lee et al., cited above, for the production of the indomethacin-induced ulcer in rats, the property of the compounds of formula 1 to inhibit such ulcers is readily demonstrable. More specifically: male albino rats (170 - 190 g; Sprague-Dawley strain, Canadian Breeding Laboratories), caged individually, were fasted 24 hr with free access to water until the start of the experiment. Indomethacin was given intraperitoneally. The animals were killed 5 hr later and the ulcer formation in the glandular portion of the stomach determined. The compound of formula 1 was administered perorally immediately after the indomethacin. The percent inhibition of ulcer formation versus the semilogarithm of the dose (mg/kg) was plotted and the dose at which 50% inhibition occurred (ED50) was read from the graph.
# Analysis of variance and regression study were used in the evaluation of the data.
# Indomethacin was administered (0.5 ml) as an aqueous suspension (2 drops of polysorbate 80 per 14 ml of H2 O). Polysorbate 80 is a mixture of sorbitol and its anhydrides copolymerized with ethylene oxide. The compounds of formula 1 were given (0.2 ml) in a 0.2% sodium carboxymethyl cellulose aqueous suspension.
# The results of such a test for 2-(3-hydroxy-3-methyloctyl)-5-oxocyclopentaneheptanoic acid to inhibit the ulcer formation induced by 20 mg/kg i.p. of indomethacin are given in the following table. For comparative purposes the results obtained for propantheline bromide are also included.
# By following the procedure of Example 1 the effects of compounds of formula 1 other than 2-(3-hydroxy-3-methyloctyl)-5-oxocyclopentaneheptanoic acid on indomethacin-induced ulcers are demonstrable. Accordingly, the results obtained with such other compounds of formula 1 are exemplified by the following list in which the relative potency of each compound with respect to 2-(3-hydroxy-3-methyloctyl)-5-oxocyclopentaneheptanoic acid is noted.
# gastric acid secretion [2] = assay: inhibition of gastric acid secretion in the rat (method of Lippmann); format: in vivo; conditions: unit inferred, read-out: Ed50 for inhibiting gastric acid secretion
# Experimental: A comparison of the ED50 for inhibiting indomethacin-induced ulcers and the ED50 for inhibiting gastric acid secretion for compounds of formula 1 is exemplified in the following list. Both ED50 's are determined in the rat. The ED50 for inhibiting indomethacin-induced ulcers is obtained according to the method of Example 1. The ED50 for inhibiting gastric acid secretion is obtained according to the method of Lippmann, cited above.
# diarrhea = diarrhea in female mice or rats, peroral; format: in vivo, mouse; conditions: 60 minutes; for diarrheal effect: female mice, 240 mg/kg peroral
# [3] = test system: phenylbutazone-induced ulcers; assay: phenylbutazone-induced ulcer formation in rats; format: in vivo, rat; conditions: for % Inhibition of ulcer formation / Ulcers Formed, Mean ± S.E.M.: phenylbutazone 300 mg/kg p.o., 18 hr
# [4] = cited from earlier work; for stability: natural prostaglandins, T.O. Oesterling et al.
# [5] = test system: indomethacin-induced ulcers; conditions: cited from earlier work
# ulcers = conditions: man; N.O. Rothermich 1966; cited from earlier work
# diarrheal effect = conditions: larger doses; Misiewicz et al. 1969; cited from earlier work
# gastric acid secretion [6] = conditions: W. Lippmann 1971; cited from earlier work
# [7] = 5 h, rat, method of Example 1 (dose in mg/kg there), unit inferred, read-out: ED50 for inhibiting indomethacin-induced ulcer
# [8] = Rattus norvegicus, indomethacin 20 mg/kg i.p., 5 hr, read-out: ED50 (dose at which 50% inhibition of ulcer formation occurred)
compound,measurement,setting,value
"CCCCC(C)(C)C(O)C=C[C@@H]1CCC(=O)[C@H]1C/C=C\CCCC(=O)O (relative stereo) [trans,cis-7-[2-(3-Hydroxy-4,4-dimethyl-1-octenyl)-5-oxocyclopentyl]-5-heptenoic acid]",ED50,[1]; [7],~0.02 mg/kg
same,Relative Potency ± S.E.M.,[1],4.8
same,ED50,gastric acid secretion [2],~1 mg/kg
CCCCCC(O)C=C[C@@H]1CCC(=O)[C@H]1CCCCCCC(=O)O (relative stereo) [trans-2-(3-Hydroxy-1-octenyl)-5-oxocyclopentaneheptanoic acid],Relative Potency ± S.E.M.,[1],0.74 ± 0.20
CCCCCC(C)(O)C=C[C@@H]1CCC(=O)[C@H]1CCCCCCC(=O)O (relative stereo) [trans-2-(3-Hydroxy-3-methyl-1-octenyl)-5-oxocyclopentaneheptanoic acid],Relative Potency ± S.E.M.,[1],1.07 ± 0.33
CCCCCC(O)CC[C@@H]1CCC(=O)[C@H]1CCCCCCC(=O)O (relative stereo) [trans-2-(3-Hydroxyoctyl)-5-oxocyclopentaneheptanoic acid],Relative Potency ± S.E.M.,[1],0.45 ± 0.12 and 0.64 ± 0.20
O=C(O)CCCCCC[C@@H]1C(=O)CC[C@H]1C=CC(O)CC1CCCCC1 (relative stereo) [trans-2-(4-Cyclohexyl-3-hydroxy-1-butenyl)-5-oxocyclopentaneheptanoic acid],Relative Potency ± S.E.M.,[1],0.13 ± 0.06
"CCCCCC(O)C=C[C@@H]1CCC(=O)[C@H]1C/C=C\CCCC(=O)O (single isomer, unassigned) [trans,cis-7-[2-(3-Hydroxy-1-octenyl)-5-oxocyclopentyl]-5-hep] [trans,cis-7-[2-(3-Hydroxy-1-octenyl)-5-oxocyclopentyl]-5-heptenoic acid]",Relative Potency ± S.E.M.,[1],0.37 ± 0.21 and 0.37 ± 0.14
"CCCCCC(C)(O)CCC1CCC(=O)C1CCCCCCC(=O)O (single isomer, unassigned; (+)) [(+)-2-(3-Hydroxy-3-methyloctyl)-5-oxocyclopentaneheptanoic a] [(+)-2-(3-Hydroxy-3-methyloctyl)-5-oxocyclopentaneheptanoic acid]",Relative Potency ± S.E.M.,[1],1.02 ± 0.42
same,diarrheal effect,diarrhea,do not cause an appreciable diarrheal effect
"CCCCCC(C)(O)CCC1CCC(=O)C1CCCCCCC(=O)O (single isomer, unassigned; (+)) [(+)-2-(3-Hydroxy-3-methyloctyl)-5-oxocyclopentaneheptanoic acid]",ED50,[1]; [7],0.11 mg/kg
"CCCCCC(C)(O)CCC1CCC(=O)C1CCCCCCC(=O)O (single isomer, unassigned; (-)) [(-)-2-(3-Hydroxy-3-methyloctyl)-5-oxocyclopentaneheptanoic a] [(-)-2-(3-Hydroxy-3-methyloctyl)-5-oxocyclopentaneheptanoic acid]",ED50 for inhibiting indomethacin-induced ulcer,"[1]; rat, method of Example 1 (dose in mg/kg there), unit inferred, 300 min",0.11 mg/kg
same,Relative Potency ± S.E.M.,[1],1.01 ± 0.40
same,diarrheal effect,diarrhea,do not cause an appreciable diarrheal effect
CCCCCC(C)(O)CCC1CCC(=O)C1CCCCCCC(=O)O (stereo not shown) [2-(3-hydroxy-3-methyloctyl)-5-oxocyclopentaneheptanoic acid],% Inhibition of ulcer formation,"[1]; 0.075 mg/kg p.o., indomethacin 20 mg/kg i.p., 5 hr",43%
same,"Ulcers Formed, Mean ± S.E.M.","[1]; 0.075 mg/kg p.o., indomethacin 20 mg/kg i.p., 5 hr, n=9, P < 0.01",5.9 ± 0.8
same,% Inhibition of ulcer formation,"[1]; 0.15 mg/kg p.o., indomethacin 20 mg/kg i.p., 5 hr",56%
same,"Ulcers Formed, Mean ± S.E.M.","[1]; 0.15 mg/kg p.o., indomethacin 20 mg/kg i.p., 5 hr, n=9, P < 0.01",4.6 ± 0.6
same,% Inhibition of ulcer formation,"[1]; 0.30 mg/kg p.o., indomethacin 20 mg/kg i.p., 5 hr",69%
same,"Ulcers Formed, Mean ± S.E.M.","[1]; 0.30 mg/kg p.o., indomethacin 20 mg/kg i.p., 5 hr, n=9, P < 0.001",3.2 ± 0.5
same,ED50,[1]; [8],0.11 mg/kg
same,ED50,[1]; [7],0.11 mg/kg
same,ED50,gastric acid secretion [2],4.3 mg/kg
same,% Inhibition of ulcer formation,[3]; 7.5 mg/kg p.o.,24%
same,"Ulcers Formed, Mean ± S.E.M.","[3]; 7.5 mg/kg p.o., n=10",4.1 ± 1.0
same,% Inhibition of ulcer formation,[3]; 15 mg/kg p.o.,48%
same,"Ulcers Formed, Mean ± S.E.M.","[3]; 15 mg/kg p.o., n=9",2.8 ± 0.6
same,% Inhibition of ulcer formation,[3]; 30 mg/kg p.o.,78%
same,"Ulcers Formed, Mean ± S.E.M.","[3]; 30 mg/kg p.o., n=9",1.2 ± 0.5
same,ED50,"[3]; Rattus norvegicus, po, over an 18 hr period",~15 mg/kg
same,diarrheal effect,diarrhea,do not cause an appreciable diarrheal effect
CCCCC[C@H](O)/C=C/[C@@H]1[C@@H](CCCCCCC(=O)O)[C@@H](O)C[C@H]1O [PGF1α],stability,[4],relatively unstable
COc1ccc2c(c1)c(CC(=O)O)c(C)n2C(=O)c1ccc(Cl)cc1 [indomethacin],correlation between dosage and occurrence of ulcers,"[5]; rat, Lee et al.",found a similar correlation in the rat
same,correlation between dosage and occurrence of ulcers,ulcers,found a correlation between indomethacin dosage and the occurence of ulcers in man
"CC(C)[N+](C)(CCOC(=O)C1c2ccccc2Oc2ccccc21)C(C)C [propantheline bromide, reference compound]",% Inhibition of ulcer formation,"[1]; 1.5 mg/kg p.o., indomethacin 20 mg/kg i.p., 5 hr",36%
same,"Ulcers Formed, Mean ± S.E.M.","[1]; 1.5 mg/kg p.o., indomethacin 20 mg/kg i.p., 5 hr, n=9, P < 0.05",6.9 ± 0.9
same,% Inhibition of ulcer formation,"[1]; 3.0 mg/kg p.o., indomethacin 20 mg/kg i.p., 5 hr",52%
same,"Ulcers Formed, Mean ± S.E.M.","[1]; 3.0 mg/kg p.o., indomethacin 20 mg/kg i.p., 5 hr, n=9, P < 0.01",5.0 ± 1.0
same,% Inhibition of ulcer formation,"[1]; 6.0 mg/kg p.o., indomethacin 20 mg/kg i.p., 5 hr",61%
same,"Ulcers Formed, Mean ± S.E.M.","[1]; 6.0 mg/kg p.o., indomethacin 20 mg/kg i.p., 5 hr, n=8, P < 0.01",4.1 ± 0.9
same,times less potent than 2-(3-hydroxy-3-methyloctyl)-5-oxocyclopentaneheptanoic acid,"[1]; ED50 comparison, p.o., indomethacin-induced ulcers",27 times
same,ED50,[1]; [8],3 mg/kg
same,reduction of the ulcerogenic activity of indomethacin,"[5]; rats, Lee et al. 1971, dose relative to usual therapeutic dose",proved to be effective but only when administered at does much higher than their usual therapeutic dose
CCCCC[C@H](O)/C=C/[C@H]1[C@H](O)CC(=O)[C@@H]1CCCCCCC(=O)O [prostaglandin E1],diarrheal effect,diarrheal effect,diarrheal effect associated with larger doses
same,effect on gastric acid secretion,gastric acid secretion [6],inhibit gastric acid secretion
CCCCC[C@H](O)/C=C/[C@H]1[C@H](O)CC(=O)[C@@H]1C/C=C\CCCC(=O)O [prostaglandin E2],test animals with diarrhea,diarrhea; 43 mg/kg peroral,50%
same,stability,[4],relatively unstable
same,dehydration of the 11-hydroxy group,[4]; under both basic and acidic conditions,participates readily in dehydration reactions under both basic and acidic conditions
trans-2-(3-Methyl-3-oxooctyl)-5-oxocyclopentaneheptanoic acid,Relative Potency ± S.E.M.,[1],0.43 ± 0.14
